In ChEMBL document CHEMBL1141891, “Crystallographic determination of stereochemistry of biologically active 2'',3''-dibromo-7-epi-10-deacetylcephalomannine” (Bioorg Med Chem Lett, 2005) one finds IC50 data, which are given here for three molecules.

Values after ≈ are worked out from the molar mass of the structure shown.

By IC50 is commonly meant the midpoint of a concentration-inhibition curve.

Common to all, as to assay type: functional, cell-based
Experiment [1] concerns A549. The experiment is described as follows: Inhibitory concentration required to inhibit A549 Cell line growth on continuous exposure time of 72 h. As to conditions: Homo sapiens, A549, 72 h.
In experiment [2] the test system is MCF7. In words: Inhibitory concentration required to inhibit MCF-7 Cell line growth on continuous exposure time of 72 h. As to conditions: Homo sapiens, MCF7, 72 h.
For experiment [3], the system named is A2780. The experiment is described as follows: Inhibitory concentration against A2780 proliferation after 72 hr. As to conditions: Homo sapiens, A2780, 72 h.

On to `CC(=O)O[C@@]12CO[C@@H]1C[C@@H](O)[C@@]1(C)C(=O)[C@H](O)C3=C(C)[C@@H](OC(=O)[C@H](O)[C@@H](NC(=O)[C@@](C)(Br)[C@H](C)Br)c4ccccc4)C[C@@](O)([C@@H](OC(=O)c4ccccc4)C12)C3(C)C` (some centres not stated), for which the IC50 came to 13 ng/mL (≈ 13.7 nM) in experiment [1], 4.75 ng/mL (≈ 5 nM) in experiment [2] and 2.13 ng/mL (≈ 2.24 nM) in experiment [3].
In the same order, the values of `CC(=O)O[C@@]12CO[C@@H]1C[C@@H](O)[C@@]1(C)C(=O)[C@H](O)C3=C(C)[C@@H](OC(=O)[C@H](O)[C@@H](NC(=O)[C@](C)(Br)[C@@H](C)Br)c4ccccc4)C[C@@](O)([C@@H](OC(=O)c4ccccc4)C12)C3(C)C` (some centres not stated) are 26.9 ng/mL (≈ 28.3 nM), 7.1 ng/mL (≈ 7.48 nM) and 4.84 ng/mL (≈ 5.1 nM).
Molecule `CC(=O)O[C@H]1C(=O)[C@@]2(C)[C@H]([C@H](OC(=O)c3ccccc3)[C@]3(O)C[C@H](OC(=O)[C@H](O)[C@@H](NC(=O)c4ccccc4)c4ccccc4)C(C)=C1C3(C)C)[C@]1(OC(C)=O)CO[C@@H]1C[C@@H]2O` [PACLITAXEL] had an IC50 in experiment [3] of 6.76 ng/mL (≈ 7.92 nM).
